Laboratory results from patent US9493448B2, “Cycloalkane derivatives” (Daiichi Sankyo Company, Limited, priority 2012, dated 2016).

How the values were obtained:
[1] = tested on: mice and rats affected by thermal hyperalgesia; assay: Thermal hyperalgesia assay; format: in vivo; settings: oral administration, constant dose, against the vehicle treatment group; latency to escape behaviors after thermal stimulation of hind paw;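 also: measurement times set by the study director and not disclosed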
hNav 1.7 = hNav 1.7 (Homo sapiens (Human), UniProt Q15858); assay: Electrophysiological evaluation, automated patch clamp IonWorks Quattro (Population Patch Clamp mode); format: cell-based; settings: HEK293A cells stably expressing hNav 1.7/β1/β2; response to second depolarization pulse, pre-pulse potential set to V1/2; read-out: hNav1.7 IC50
Sequence of hNav 1.7 (Q15858 whole entry): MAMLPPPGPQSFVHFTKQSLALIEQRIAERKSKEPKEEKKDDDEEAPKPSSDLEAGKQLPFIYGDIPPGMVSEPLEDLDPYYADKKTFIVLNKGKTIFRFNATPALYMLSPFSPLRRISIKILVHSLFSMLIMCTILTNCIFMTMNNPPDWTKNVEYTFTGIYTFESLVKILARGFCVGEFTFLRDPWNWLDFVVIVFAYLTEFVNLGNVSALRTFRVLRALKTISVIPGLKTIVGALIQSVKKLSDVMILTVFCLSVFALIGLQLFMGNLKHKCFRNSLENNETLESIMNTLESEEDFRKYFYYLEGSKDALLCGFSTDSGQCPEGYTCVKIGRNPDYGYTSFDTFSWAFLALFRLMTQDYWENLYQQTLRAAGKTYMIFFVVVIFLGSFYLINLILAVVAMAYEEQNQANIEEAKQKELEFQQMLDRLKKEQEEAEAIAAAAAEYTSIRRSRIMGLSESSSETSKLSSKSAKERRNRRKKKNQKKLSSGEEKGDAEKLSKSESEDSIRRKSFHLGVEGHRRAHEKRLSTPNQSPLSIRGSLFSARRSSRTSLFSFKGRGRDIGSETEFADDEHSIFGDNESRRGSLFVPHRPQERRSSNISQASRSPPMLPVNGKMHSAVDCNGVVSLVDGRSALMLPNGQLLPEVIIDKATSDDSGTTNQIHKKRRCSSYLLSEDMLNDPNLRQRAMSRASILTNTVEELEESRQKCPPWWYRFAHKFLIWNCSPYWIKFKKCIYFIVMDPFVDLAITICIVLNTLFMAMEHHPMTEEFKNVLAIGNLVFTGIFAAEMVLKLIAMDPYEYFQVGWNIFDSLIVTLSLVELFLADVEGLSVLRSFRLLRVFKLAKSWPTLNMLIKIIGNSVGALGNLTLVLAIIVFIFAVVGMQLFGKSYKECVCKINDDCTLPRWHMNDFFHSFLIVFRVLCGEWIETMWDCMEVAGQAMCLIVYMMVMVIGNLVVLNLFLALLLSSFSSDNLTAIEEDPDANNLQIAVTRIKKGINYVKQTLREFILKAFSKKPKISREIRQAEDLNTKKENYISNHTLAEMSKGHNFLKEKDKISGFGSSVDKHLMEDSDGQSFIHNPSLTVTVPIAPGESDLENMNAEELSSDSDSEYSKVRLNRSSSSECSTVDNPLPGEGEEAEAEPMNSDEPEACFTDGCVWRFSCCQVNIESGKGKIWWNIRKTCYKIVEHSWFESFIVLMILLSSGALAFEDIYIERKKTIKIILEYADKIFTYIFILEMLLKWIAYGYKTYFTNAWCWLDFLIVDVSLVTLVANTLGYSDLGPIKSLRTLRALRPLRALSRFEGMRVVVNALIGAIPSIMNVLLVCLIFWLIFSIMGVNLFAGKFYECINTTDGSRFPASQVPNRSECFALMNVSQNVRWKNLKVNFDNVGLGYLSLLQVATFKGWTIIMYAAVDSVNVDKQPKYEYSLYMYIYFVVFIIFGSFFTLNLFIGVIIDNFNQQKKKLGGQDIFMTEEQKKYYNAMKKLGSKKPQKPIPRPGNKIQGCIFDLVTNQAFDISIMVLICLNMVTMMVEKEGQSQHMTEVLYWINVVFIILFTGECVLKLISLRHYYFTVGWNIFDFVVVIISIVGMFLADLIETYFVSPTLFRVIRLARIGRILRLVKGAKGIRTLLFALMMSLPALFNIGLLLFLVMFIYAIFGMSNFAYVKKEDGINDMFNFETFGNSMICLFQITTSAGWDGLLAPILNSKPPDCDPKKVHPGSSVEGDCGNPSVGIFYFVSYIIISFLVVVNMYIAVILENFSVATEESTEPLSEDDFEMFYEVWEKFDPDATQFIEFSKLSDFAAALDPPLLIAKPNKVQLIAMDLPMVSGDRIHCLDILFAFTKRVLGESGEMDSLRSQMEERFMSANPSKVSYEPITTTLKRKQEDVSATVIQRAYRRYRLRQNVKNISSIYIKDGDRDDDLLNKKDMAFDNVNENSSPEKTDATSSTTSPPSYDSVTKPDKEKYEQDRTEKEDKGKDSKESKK
Sequence of hNav 1.7 (Q07699 19-218 partner): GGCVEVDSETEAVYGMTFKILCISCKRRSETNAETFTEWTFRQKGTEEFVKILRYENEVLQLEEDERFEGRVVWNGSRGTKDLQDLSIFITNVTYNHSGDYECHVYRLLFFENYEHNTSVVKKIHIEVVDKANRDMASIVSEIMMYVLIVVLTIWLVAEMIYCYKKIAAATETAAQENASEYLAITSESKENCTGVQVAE
Sequence of hNav 1.7 (O60939 30-215 partner): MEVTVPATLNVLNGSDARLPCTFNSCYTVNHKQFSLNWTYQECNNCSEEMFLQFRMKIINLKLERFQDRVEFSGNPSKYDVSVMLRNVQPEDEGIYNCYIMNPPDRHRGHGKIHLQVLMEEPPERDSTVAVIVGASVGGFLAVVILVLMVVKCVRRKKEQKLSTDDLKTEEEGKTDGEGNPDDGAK

Row | SMILES | Ratio of improving pain score (%) [1] | IC50 (hNav 1.7) [nM]
1 | Cc1c(O[C@H]2CCCC[C@@H]2c2c[nH]nc2N)ccc(S(=O)(=O)Nc2ccncn2)c1F (relative stereo) [Example 73, 4-{[(1S*,2R*)-2-(3-Amino-1H-pyrazol-4-yl)cyclohexyl]oxy}-2-fluoro-3-methyl-N-(pyrimidin-4-yl)benzenesulfonamide] | A (“A” when the rate was 61 to 100%) | 100
2 | Cn1nccc1[C@H]1CCCC[C@@H]1Oc1ccc(S(=O)(=O)Nc2ccncn2)c(F)c1Cl (relative stereo) [Example 79, 3-Chloro-2-fluoro-4-{[(1S*,2R*)-2-(1-methyl-1H-pyrazol-5-yl)cyclohexyl]oxy}-N-(pyrimidin-4-yl)benzenesulfonamide] | C (“C” when the rate was 0 to 30%) | 70
3 | Cn1nccc1[C@H]1CCC[C@@H]1Oc1ccc(S(=O)(=O)Nc2ccncn2)c(F)c1Cl (relative stereo) [Example 80, 3-Chloro-2-fluoro-4-{[(1S*,2R*)-2-(1-methyl-1H-pyrazol-5-yl)cyclopentyl]oxy}-N-(pyrimidin-4-yl)benzenesulfonamide] | C (“C” when the rate was 0 to 30%) | 86
4 | Cc1cc(S(=O)(=O)Nc2ccncn2)c(F)cc1O[C@H]1CCCC[C@@H]1c1cn[nH]c1 (relative stereo) [Example 81, 2-Fluoro-5-methyl-4-{[(1S*,2R*)-2-(1H-pyrazol-4-yl)cyclohexyl]oxy}-N-(pyrimidin-4-yl)benzenesulfonamide] | C (“C” when the rate was 0 to 30%) | 150
5 | Nc1nnccc1[C@H]1CCCC[C@@H]1Oc1cc(F)c(S(=O)(=O)Nc2ccncn2)cc1F (relative stereo) [Example 82, 4-{[(1S*,2R*)-2-(3-Aminopyridazin-4-yl)cyclohexyl]oxy}-2,5-difluoro-N-(pyrimidin-4-yl)benzenesulfonamide] | B (“B” when the rate was 31 to 60%) | 56
6 | O=S(=O)(Nc1ccncn1)c1ccc(O[C@H]2CCCC[C@@H]2c2cn[nH]c2)c(F)c1F (relative stereo) [Example 83, 2,3-Difluoro-4-{[(1S*,2R*)-2-(1H-pyrazol-4-yl)cyclohexyl]oxy}-N-(pyrimidin-4-yl)benzenesulfonamide] | B (“B” when the rate was 31 to 60%) | 650
7 | Cc1c(O[C@H]2CC(F)(F)CC[C@@H]2c2ccnn2C)ccc(S(=O)(=O)Nc2ccncn2)c1F (relative stereo) [Example 84, 4-{[(1S*,2R*)-5,5-Difluoro-2-(1-methyl-1H-pyrazol-5-yl)cyclohexyl]oxy}-2-fluoro-3-methyl-N-(pyrimidin-4-yl)benzenesulfonamide] | B (“B” when the rate was 31 to 60%) | 36
8 | Cc1cc(S(=O)(=O)Nc2ccncn2)c(F)cc1O[C@H]1CCC[C@@H]1c1c[nH]nc1N (relative stereo) [Example 85, 4-{[(1S*,2R*)-2-(3-Amino-1H-pyrazol-4-yl)cyclopentyl]oxy}-2-fluoro-5-methyl-N-(pyrimidin-4-yl)benzenesulfonamide] | B (“B” when the rate was 31 to 60%) | 170
9 | Cn1nccc1[C@H]1CCCC[C@@H]1Oc1cc(F)c(S(=O)(=O)Nc2nncs2)cc1Cl (relative stereo) [Example 86, 5-Chloro-2-fluoro-4-{[(1S*,2R*)-2-(1-methyl-1H-pyrazol-5-yl)cyclohexyl]oxy}-N-(1,3,4-thiadiazol-2-yl)benzenesulfonamide] | A (“A” when the rate was 61 to 100%) | 36
10 | Cn1nccc1[C@H]1CCC[C@@H]1Oc1cc(F)c(S(=O)(=O)Nc2nncs2)cc1Cl (relative stereo) [Example 87, 5-Chloro-2-fluoro-4-{[(1S*,2R*)-2-(1-methyl-1H-pyrazol-5-yl)cyclopentyl]oxy}-N-(1,3,4-thiadiazol-2-yl)benzenesulfonamide] | B (“B” when the rate was 31 to 60%) | 280
11 | Cn1nccc1[C@H]1CC(F)(F)CC[C@@H]1Oc1cc(F)c(S(=O)(=O)Nc2ccncn2)cc1F (relative stereo) [Example 88, 4-{[(1S*,2R*)-4,4-Difluoro-2-(1-methyl-1H-pyrazol-5-yl)cyclohexyl]oxy}-2,5-difluoro-N-(pyrimidin-4-yl)benzenesulfonamide] | C (“C” when the rate was 0 to 30%) | 320
12 | Cc1cc(S(=O)(=O)Nc2ccncn2)c(F)cc1O[C@H]1CC(F)(F)CC[C@@H]1c1ccnn1C (relative stereo) [Example 90, 4-{[(1S*,2R*)-5,5-Difluoro-2-(1-methyl-1H-pyrazol-5-yl)cyclohexyl]oxy}-2-fluoro-5-methyl-N-(pyrimidin-4-yl)benzenesulfonamide] | B (“B” when the rate was 31 to 60%) | 89
13 | Nc1n[nH]cc1[C@H]1CCCC[C@@H]1Oc1ccc(S(=O)(=O)Nc2ccncn2)c(F)c1Cl (relative stereo) [Example 91, 4-{[(1S*,2R*)-2-(3-Amino-1H-pyrazol-4-yl)cyclohexyl]oxy}-3-chloro-2-fluoro-N-(pyrimidin-4-yl)benzenesulfonamide] | A (“A” when the rate was 61 to 100%) | 170
14 | Cn1nccc1[C@H]1CC(C)(C)C[C@@H]1Oc1cc(F)c(S(=O)(=O)Nc2ccncn2)cc1F (relative stereo) [Example 93, 4-{[(1S*,2R*)-4,4-Dimethyl-2-(1-methyl-1H-pyrazol-5-yl)cyclopentyl]oxy}-2,5-difluoro-N-(pyrimidin-4-yl)benzenesulfonamide] | B (“B” when the rate was 31 to 60%) | 65
15 | O=S(=O)(Nc1ccncn1)c1c(F)cc(O[C@H]2CCCC[C@@H]2c2cn[nH]c2)cc1F (relative stereo) [Example 94, 2,6-Difluoro-4-{[(1S*,2R*)-2-(1H-pyrazol-4-yl)cyclohexyl]oxy}-N-(pyrimidin-4-yl)benzenesulfonamide] | A (“A” when the rate was 61 to 100%) | 120
16 | [2H]c1nccc(NS(=O)(=O)c2ccc(O[C@H]3CCC[C@@H]3c3ccnn3CC)c(F)c2F)n1 (relative stereo) [Example 95, 4-{[(1S*,2R*)-2-(1-Ethyl-1H-pyrazol-5-yl)cyclopentyl]oxy}-2,3-difluoro-N-(2-^2H) (pyrimidin-4-yl)benzenesulfonamide] | C (“C” when the rate was 0 to 30%) | 170
17 | CC(=O)Nc1n[nH]cc1[C@H]1CCCC[C@@H]1Oc1cc(F)c(S(=O)(=O)Nc2ccncn2)cc1C (relative stereo) [Example 96, N-(4-{(1R*,2S*)-2-[5-fluoro-2-methyl-4-((pyrimidin-4-yl)sulfamoyl)phenoxy]cyclohexyl}-1H-pyrazol-3-yl)acetamide] | A (“A” when the rate was 61 to 100%) | 250
18 | Cn1nccc1[C@H]1C[C@@H](OCc2ccccc2)C[C@@H]1Oc1cc(F)c(S(=O)(=O)Nc2ccncn2)cc1F (relative stereo) [Example 97, 4-{[(1S*,2R*,4R*)-4-(Benzyloxy)-2-(1-methyl-1H-pyrazol-5-yl)cyclopentyl]oxy}-2,5-difluoro-N-(pyrimidin-4-yl)benzenesulfonamide] | C (“C” when the rate was 0 to 30%) | 34
19 | Cn1nccc1[C@H]1C[C@H](OCc2ccccc2)C[C@@H]1Oc1cc(F)c(S(=O)(=O)Nc2ccncn2)cc1F (relative stereo) [Example 98, 4-{[(1S*,2R*,4S*)-4-(Benzyloxy)-2-(1-methyl-1H-pyrazol-5-yl)cyclopentyl]oxy}-2,5-difluoro-N-(pyrimidin-4-yl)benzenesulfonamide] | C (“C” when the rate was 0 to 30%) | 46
20 | Cc1cc(S(=O)(=O)Nc2ccncn2)c(F)cc1O[C@H]1CCC[C@@H]1c1cn[nH]c1 (relative stereo) [Example 101, 2-Fluoro-5-methyl-4-{[(1S*,2R*)-2-(1H-pyrazol-4-yl)cyclopentyl]oxy}-N-(pyrimidin-4-yl)benzenesulfonamide] | B (“B” when the rate was 31 to 60%) | 180
21 | O=S(=O)(Nc1ccncn1)c1cc(F)c(O[C@H]2CC(F)(F)CC[C@@H]2c2cn[nH]c2)cc1F (relative stereo) [Example 103, 4-{[(1S*,2R*)-5,5-Difluoro-2-(1H-pyrazol-4-yl)cyclohexyl]oxy}-2,5-difluoro-N-(pyrimidin-4-yl)benzenesulfonamide] | B (“B” when the rate was 31 to 60%) | 320
22 | O=S(=O)(Nc1ccncn1)c1c(F)cc(O[C@H]2CC(F)(F)CC[C@@H]2c2cn[nH]c2)cc1F (relative stereo) [Example 104, 4-{[(1S*,2R*)-5,5-Difluoro-2-(1H-pyrazol-4-yl)cyclohexyl]oxy}-2,6-difluoro-N-(pyrimidin-4-yl)benzenesulfonamide] | B (“B” when the rate was 31 to 60%) | 71
23 | Cn1nccc1[C@H]1CCC(F)(F)C[C@@H]1Oc1ccc(S(=O)(=O)Nc2ccncn2)c(F)c1F (relative stereo) [Example 105, 4-{[(1S*,2R*)-5,5-Difluoro-2-(1-methyl-1H-pyrazol-5-yl)cyclohexyl]oxy}-2,3-difluoro-N-(pyrimidin-4-yl)benzenesulfonamide] | A (“A” when the rate was 61 to 100%) | 220
24 | Cn1nccc1[C@H]1CC(F)(F)C[C@@H]1Oc1cc(F)c(S(=O)(=O)Nc2ccncn2)cc1F (relative stereo) [Example 107, 4-{[(1S*,2R*)-4,4-Difluoro-2-(1-methyl-1H-pyrazol-5-yl)cyclopentyl]oxy}-2,5-difluoro-N-(pyrimidin-4-yl)benzenesulfonamide] | B (“B” when the rate was 31 to 60%) | 42
